Data as given in patent US8187822B2, “Methods to identify modulators” (Givaudan S.A., priority 2007, dated 2012).

Experiments:
Format in all cases: cell-based
[1] = molecular target: T1, TAS2R16 (Homo sapiens, UniProt Q9NYV7); assay: Fluo-4 calcium assay, cells expressing TAS2R16 (control of antagonist specificity)
T1 construct: The full length gene of human TAS2R44 was amplified by polymerase chain reaction (PCR) using gene-specific primers that span the entire coding region; RSS tag (first 45 amino acids of rat somatostatin receptor subtype 3) (N); expressed in transfected cells; host or cells: HEK293T cells expressing Gα16-gustducin44
T1 sequence (Q9NYV7 1-291): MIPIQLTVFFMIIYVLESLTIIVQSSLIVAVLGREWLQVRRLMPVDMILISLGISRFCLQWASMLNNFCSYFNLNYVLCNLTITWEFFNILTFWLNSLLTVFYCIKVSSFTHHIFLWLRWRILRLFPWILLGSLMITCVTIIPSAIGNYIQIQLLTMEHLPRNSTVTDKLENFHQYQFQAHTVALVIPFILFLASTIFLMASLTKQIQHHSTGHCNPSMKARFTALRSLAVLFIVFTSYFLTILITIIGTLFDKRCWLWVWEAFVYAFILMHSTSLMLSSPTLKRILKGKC
Procedure: (§1) At day 0, the HEK293T cell line expressing Gα16-gustducin44 and a TAS2R bitter taste receptor formed as described in examples 2b or 2c was seeded in antibiotic-free growth medium (standard DMEM with 10% (v/v) heat-inactivated fetal bovine serum, 2 mM L-glutamine[…]) into black wall/clear bottom 96-well plates, coated with poly(ethylenimine) (0.005% v/v) at a concentration of 15,000 cells per well and incubated for 48 hours in humidified atmosphere (37° C., 5% CO2).
(§2) At the time of the assay, the growth medium was discarded and the cells were in humidified atmosphere (37° C., 5% CO2) for 1 hour with 50 μl of loading buffer consisting of 1.5 μM Fluo-4 AM and […] probenicid (Sigma-Aldrich, St. Louis, Mo., US) in DMEM.
(§3) Afterwards, the 96-well plate was washed 5 times with 100 μl of assay buffer (130 mM NaCl, 5 mM KCl, 10 mM HEPES, 2 mM CaCl2, and 5 mM dextrose, pH 7.4) per well, using an automated plate washer (BioTek). The plate was further incubated for 30 minutes at room temperature in the dark to allow for complete de-esterification of the Fluo-4. Afterwards the plate was washed 5 times with 100 μl of assay buffer per well, and reconstituted with 100 μl of assay buffer per well.
(§4) For assay reading, the plate was placed in a Fluorometric Imaging Plate Reader (FLIPR) (FLIPR-TETRA™, Molecular Devices, Sunnyvale, Calif., US), and receptor activation was initiated by addition of 100 μl of a twofold concentrated agonist stock solution (to give the desired agonist end concentration when added to the 100 microliter assay buffer volume), which was prepared in assay buffer.
(§5) Fluorescence was continuously monitored for 20 seconds to give a signal baseline (averaged to give F0) prior to agonist addition and for 120 seconds after agonist addition. The change in signal divided by F0 gives ΔF/F0 indicated in the table, with ΔF being the maximum signal occurring within the 120 seconds minus the minimum signal (occurring within the 120 seconds after agonist addition.
(§6) All data was collected from at least two independent experiments each carried out in triplicate.
(§7) A concentration-response analysis was performed and EC50 values were calculated by nonlinear regression using the function f(x)=(a−d)/(1+(x/C)^nh)+d; with a=minimum signal, d=maximum signal, nh=hill coefficient, C=EC50, and x=agonist concentration. EC50 is the molar concentration of an agonist which produces 50% of the maximum possible effective response for that agonist.
(§8) The obtained calcium signals were corrected for the response of cells expressing only the G Protein α subunit (Gα16-gustducin44) and normalized to the fluorescence of cells prior to the stimulus using ΔF/F0 (Fmax−Fmin/F0).
All cells were HEK293T cells stably expressing Gα16-gustducin44, or expressing Gα16-gustducin44 and a TAS2R receptor (TAS2R44, TAS2R16).
The method was carried out as described in example 3 subject to the following modifications: The samples were tested with and without test compound A (test cpd A) and the signals were compared. The test compound was dissolved in dimethylsulfoxide (DMSO), and a negative control with equivalent DMSO concentration (0.02%) was performed accordingly to exclude a potential inhibitory effect of the solvent.
As a control of antagonist specificity, the response of an unrelated bitter taste receptor (TAS2R16) to its agonist phenyl-β-glucopyranosides is also detected (see results in table 8 herein below).

[2] = system: cells expressing only Gα16gustducin44 but no TAS2 receptor; assay: Fluo-4 calcium assay, negative control cells without bitter receptor
Procedure: HEK293T/Gα16-gustducin 44 cells were used; they are formed as described in WO 2004/055048. The host cell line HEK-293T is commercially available from the American Tissue Culture Collection (ATCC), ATCC®# CRL-11268
as §1, §2, §3, §4, §5, §8
To confirm that the cell line formed in example 2c stably expresses the bitter taste receptor TAS2R44, a concentration-response curve for saccharin, a known agonist of TAS2R44, was generated. […] The standard deviation (+/−STD) is also indicated.
As a negative control to determine unspecific signals, each of the applied concentrations of sucralose was applied to cells expressing only Gα16gustducin44.
As a negative control, each agonist and each agonist with the antagonist/test compound (test cpd A) is applied to cells expressing only Gal 6gustducin44 but no TAS2 receptor (see results in table 7 herein below).

[3] = molecular target: T2, TAS2R44 (Homo sapiens, UniProt P59538, L162M); assay: Fluo-4 calcium assay, HEK293T cells expressing Gα16-gustducin44 and TAS2R44
T2 construct: RSS tag (first 45 amino acids of rat somatostatin receptor subtype 3, plus EcoRI site) (N); expressed in transfected cells
T2 sequence (P59538 with tags, fused parts or gaps L162M): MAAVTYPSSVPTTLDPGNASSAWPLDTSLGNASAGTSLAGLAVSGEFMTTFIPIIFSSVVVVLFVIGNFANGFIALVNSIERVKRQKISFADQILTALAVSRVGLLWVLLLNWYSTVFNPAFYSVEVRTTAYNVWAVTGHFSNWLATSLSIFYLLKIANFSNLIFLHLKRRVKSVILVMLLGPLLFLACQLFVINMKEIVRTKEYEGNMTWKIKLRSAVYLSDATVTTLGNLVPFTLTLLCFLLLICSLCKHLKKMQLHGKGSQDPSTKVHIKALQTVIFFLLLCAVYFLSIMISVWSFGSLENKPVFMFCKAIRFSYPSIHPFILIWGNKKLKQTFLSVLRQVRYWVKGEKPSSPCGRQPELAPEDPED
Procedure: Cell lines that stably expresses a SABR (TAS2R44, TAS2R1, TAS2R10) was generated by transfecting pcDNA3.1Zeo-SABR into HEK293T/Gα16-gustducin 44 cells (both formed as described in example 1). The host cell line HEK-293T is commercially available from the American Tissue Culture Collection (ATCC), ATCC®# CRL-11268.
The expression of TAS2R44 was evaluated by testing for the presence of a functional response to the known TAS2R44 agonist saccharin (as described in WO 2004/029087) in addition to sucralose, which was determined via automated calcium imaging on the FLIPR-TETRA™ (Molecular Devices, Sunnyvale, Calif., US) as described in example 3. One clone was selected resulting in the HEK293T/Gα16-gustducin 44/TAS2R44 cell line.
Fluo-4AM (Invitrogen, Carlsbad, Calif., US) is a fluorescent indicator of intracellular calcium dynamics (change in concentration) and allows monitoring changes in the calcium concentration, particularly an increase in response to receptor activation occurring after agonist exposure.
as §1, §2, §3, §4, §5, §6, §7
The obtained calcium signals were corrected for the response of cells expressing only the G Protein α subunit (Gα16-gustducin44) and normalized to the fluorescence of cells prior to the stimulus using ΔF/F0 (Fmax−Fmin/F0). […]

## OC[C@H]1O[C@@H](Oc2ccccc2)[C@H](O)[C@@H](O)[C@@H]1O [P-β-G, phenyl-β-glucopyranoside]
[1]; P-β-G alone 0.0391 mM
  P-β-G ΔF/F0: 0.012
[1]; P-β-G alone 0.0781 mM
  P-β-G ΔF/F0: 0.213
[1]; P-β-G alone 0.1563 mM
  P-β-G ΔF/F0: 0.926
[1]; P-β-G alone 0.3125 mM
  P-β-G ΔF/F0: 1.810
[1]; P-β-G alone 0.6250 mM
  P-β-G ΔF/F0: 2.284
[1]; P-β-G alone 1.2500 mM
  P-β-G ΔF/F0: 2.361
[1]; P-β-G alone 2.5000 mM
  P-β-G ΔF/F0: 2.578
[1]; P-β-G alone 5.0000 mM
  P-β-G ΔF/F0: 2.693
[1]; P-β-G alone 10.0000 mM
  P-β-G ΔF/F0: 2.876
[1]; agonist P-β-G alone, TAS2R16
  EC50: 210 ± 20 µM

## O=C1NS(=O)(=O)c2ccccc21 [Saccharin, saccharin]
[2]; host cells expressing only Gα16-gustducin44
  signal in negative control, in words: did not show any significant change in signal
[2]; saccharin 0.0391 mM
  Neg. Control ΔF/F0: 0.016
[2]; saccharin 0.0781 mM
  Neg. Control ΔF/F0: 0.014
[2]; saccharin 0.1563 mM
  Neg. Control ΔF/F0: 0.014
[2]; saccharin 0.3125 mM
  Neg. Control ΔF/F0: 0.012
[2]; saccharin 0.6250 mM
  Neg. Control ΔF/F0: 0.014
[2]; saccharin 1.2500 mM
  Neg. Control ΔF/F0: 0.014
[2]; saccharin 2.5000 mM
  Neg. Control ΔF/F0: 0.013
[2]; saccharin 5.0000 mM
  Neg. Control ΔF/F0: 0.018
[2]; saccharin 10.0000 mM
  Neg. Control ΔF/F0: 0.020

## COC(=O)[C@H](Cc1ccccc1)NC(=O)[C@@H](N)CC(=O)O [aspartame]
[3]; cells stably expressing human TAS2R44
  agonist activity at TAS2R44 (calcium signaling), in words: not to be agonists for TAS2R44

## CC1CCC(CCCC(N)=O)C1(C)C (stereo not drawn) [test cpd B, 4-(2,2,3-trimethylcyclopentyl)butanamide]
[3]; test compound at 25 μM
  effect on the response of TAS2R44 to sucralose, in words: had no effect
[2]; test compound at 25 μM
  response in cells not expressing TAS2R44 (negative control), in words: did not elicit a response
[1]; test compound at 25 μM
  effect on the response of TAS2R16 to phenyl-β-glucopyranoside, in words: did not effect the response
